Data taken from ChEMBL document CHEMBL4342403, “New evolutions in the BACE1 inhibitor field from 2014 to 2018” (Bioorg Med Chem Lett, 2019).
One block for each molecule: values may come before it.

Key:
[1] = Dissociation constant, pKa of the compound; assay type: physicochemical
Beta-secretase 1 [2] = target: T1, Beta-secretase 1 (Homo sapiens, UniProt P56817); test: Inhibition of human BACE1 expressed in Escherichia coli preincubated for 1 hr followed by Mca-Ser-Glu-Val-Asn-Leu-Asp-Ala-Glu-Phe-Lys(Dnp)-OH substrate addition by spectroflurimetric assay
Beta-secretase 1 [3] = target: T1, Beta-secretase 1; test: Inhibition of BACE1 in human SH-SY5Y cells expressing betaAPP assessed as reduction in amyloidbeta (1 to 40 residues) level incubated for 24 hrs by HTRF assay; assay type: cell-based
Beta-secretase 1 [4] = target: Beta-secretase 1 (Rattus norvegicus, UniProt P56819); test: Inhibition of BACE1 in Wistar rat neuronal cell suspension after 1 to 3 days by ELISA
Beta-secretase 1 [5] = target: T1, Beta-secretase 1; test: Inhibition of human BACE1 using Biotin-XSEVNLDAEFRHDSGC as substrate incubated for […] by fluorescence method
Beta-secretase 1 [6] = target: T1, Beta-secretase 1; test: Inhibition of BACE1 (unknown origin)
P-glycoprotein (ABCB1) = P-glycoprotein (ABCB1) (Homo sapiens, UniProt P08183); test: Substrate activity at p-glycoprotein (unknown origin) assessed as efflux ratio; conditions: not told
Beta-secretase 2 [7] = target: T2, Beta-secretase 2 (Homo sapiens, UniProt Q9Y5Z0); test: Inhibition of BACE2 (unknown origin)
T2 sequence (Q9Y5Z0 whole entry): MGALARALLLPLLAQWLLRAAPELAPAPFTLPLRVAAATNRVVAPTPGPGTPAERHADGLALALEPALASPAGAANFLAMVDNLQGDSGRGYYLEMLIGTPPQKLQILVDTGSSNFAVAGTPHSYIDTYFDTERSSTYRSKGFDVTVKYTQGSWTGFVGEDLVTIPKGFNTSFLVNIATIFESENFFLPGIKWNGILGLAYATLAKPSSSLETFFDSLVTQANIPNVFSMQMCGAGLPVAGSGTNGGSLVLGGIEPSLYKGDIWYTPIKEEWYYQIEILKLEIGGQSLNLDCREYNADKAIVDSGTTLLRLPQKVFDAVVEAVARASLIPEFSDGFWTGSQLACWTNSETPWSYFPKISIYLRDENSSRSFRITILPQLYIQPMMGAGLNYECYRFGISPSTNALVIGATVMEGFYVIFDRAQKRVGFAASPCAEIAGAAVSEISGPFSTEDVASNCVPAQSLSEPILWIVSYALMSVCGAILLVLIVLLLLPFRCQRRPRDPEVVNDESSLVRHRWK

Beta-secretase 2 [8] = target: T2, Beta-secretase 2; test: Inhibition of human BACE2 preincubated for 30 mins followed by QSY7- EISEVNLDAEFC-Eu-amide substrate addition and measured after […] by HTRF assay
Beta-secretase 1 [9] = target: T1, Beta-secretase 1; test: Inhibition of human BACE1 catalytic domain preincubated for 30 mins followed by QSY7-EISEVNLDAEFC-Europium-amide substrate addition and measured after […] by HTRF assay
Beta-secretase 1 [10] = target: T1, Beta-secretase 1; test: Inhibition of BACE1 in HEK293 cells harboring APP assessed as reduction in amyloidbeta 40 level incubated for 18 to 20 hrs by AlphaLISA Assay; assay type: cell-based
Beta-secretase 1 [11] = target: T1, Beta-secretase 1; test: Inhibition of BACE1 (unknown origin) assessed as reduction in amyloidbeta 40 level after 24 hrs by cell-based sandwich ELISA
Beta-secretase 1 [12] = target: T1, Beta-secretase 1; test: Inhibition of BACE1 (unknown origin) by cell-based assay
Beta-secretase 1 [13] = target: T1, Beta-secretase 1; test: Inhibition of BACE1 in human SK-N-BE(2) cells expressing human APP695 assessed as reduction in amyloidbeta level incubated for 18 hrs by sandwich ELISA; assay type: cell-based
Beta-secretase 1 [14] = target: T1, Beta-secretase 1; test: Inhibition of C-terminal His6-tagged human BACE1 expressed in mammalian expression system preincubated for 1 hr followed by substrate addition and measured after 1 hr by FRET assay
Beta-secretase 2 [15] = target: T2, Beta-secretase 2; test: Inhibition of C-terminal His6-tagged human BACE2 expressed in mammalian expression system preincubated for 1 hr followed by substrate addition and measured after 1 hr by FRET assay

T1 sequence (P56817 whole entry, the tested form may be a part): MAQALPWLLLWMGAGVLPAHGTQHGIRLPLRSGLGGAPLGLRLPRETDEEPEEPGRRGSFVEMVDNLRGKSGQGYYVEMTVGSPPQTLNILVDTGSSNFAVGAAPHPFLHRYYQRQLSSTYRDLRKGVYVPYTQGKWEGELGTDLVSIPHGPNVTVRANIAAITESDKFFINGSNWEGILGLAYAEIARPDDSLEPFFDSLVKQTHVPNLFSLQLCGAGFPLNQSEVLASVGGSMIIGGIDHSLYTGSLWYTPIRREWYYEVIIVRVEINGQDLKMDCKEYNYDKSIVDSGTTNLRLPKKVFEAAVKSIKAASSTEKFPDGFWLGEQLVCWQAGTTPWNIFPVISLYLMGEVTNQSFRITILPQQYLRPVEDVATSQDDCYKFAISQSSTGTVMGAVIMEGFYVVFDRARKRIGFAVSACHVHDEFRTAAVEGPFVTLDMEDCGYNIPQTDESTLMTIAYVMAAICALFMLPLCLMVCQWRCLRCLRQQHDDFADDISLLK
Sequence of P-glycoprotein (ABCB1) (P08183 whole entry): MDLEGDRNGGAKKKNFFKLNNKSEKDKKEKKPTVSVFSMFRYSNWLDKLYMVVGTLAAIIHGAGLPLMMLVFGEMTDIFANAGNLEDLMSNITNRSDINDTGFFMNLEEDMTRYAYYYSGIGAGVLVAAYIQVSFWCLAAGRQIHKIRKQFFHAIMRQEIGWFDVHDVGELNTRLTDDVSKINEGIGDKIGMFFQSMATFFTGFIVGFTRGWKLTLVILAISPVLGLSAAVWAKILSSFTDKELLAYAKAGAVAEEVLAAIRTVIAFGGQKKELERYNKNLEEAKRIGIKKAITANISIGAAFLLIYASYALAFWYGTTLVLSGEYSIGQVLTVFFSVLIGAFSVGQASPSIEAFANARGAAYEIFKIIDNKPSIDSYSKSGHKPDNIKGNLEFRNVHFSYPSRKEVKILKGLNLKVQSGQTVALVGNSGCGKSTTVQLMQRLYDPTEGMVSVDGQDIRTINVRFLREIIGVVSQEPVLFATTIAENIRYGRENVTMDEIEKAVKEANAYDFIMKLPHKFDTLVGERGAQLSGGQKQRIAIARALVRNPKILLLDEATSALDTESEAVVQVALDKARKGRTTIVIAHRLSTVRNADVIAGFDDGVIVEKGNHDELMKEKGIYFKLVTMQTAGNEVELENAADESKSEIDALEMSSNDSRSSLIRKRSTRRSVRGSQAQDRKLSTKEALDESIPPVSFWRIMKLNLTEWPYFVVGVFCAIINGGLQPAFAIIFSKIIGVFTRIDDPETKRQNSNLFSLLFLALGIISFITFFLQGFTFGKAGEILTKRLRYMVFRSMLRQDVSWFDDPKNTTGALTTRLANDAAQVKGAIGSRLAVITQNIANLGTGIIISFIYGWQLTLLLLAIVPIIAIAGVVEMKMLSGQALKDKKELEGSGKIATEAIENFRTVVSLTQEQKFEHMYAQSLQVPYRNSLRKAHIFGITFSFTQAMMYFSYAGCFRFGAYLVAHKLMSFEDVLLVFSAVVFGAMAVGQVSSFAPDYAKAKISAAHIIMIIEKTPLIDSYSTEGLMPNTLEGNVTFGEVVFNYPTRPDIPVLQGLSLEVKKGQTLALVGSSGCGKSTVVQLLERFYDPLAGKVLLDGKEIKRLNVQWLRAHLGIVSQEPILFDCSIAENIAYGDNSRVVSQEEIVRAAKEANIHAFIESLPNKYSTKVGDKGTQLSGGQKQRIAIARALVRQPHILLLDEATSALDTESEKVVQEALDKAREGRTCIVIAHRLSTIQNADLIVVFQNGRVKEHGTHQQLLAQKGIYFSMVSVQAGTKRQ
Sequence of Beta-secretase 1 (Rattus norvegicus, UniProt P56819) (P56819 whole entry): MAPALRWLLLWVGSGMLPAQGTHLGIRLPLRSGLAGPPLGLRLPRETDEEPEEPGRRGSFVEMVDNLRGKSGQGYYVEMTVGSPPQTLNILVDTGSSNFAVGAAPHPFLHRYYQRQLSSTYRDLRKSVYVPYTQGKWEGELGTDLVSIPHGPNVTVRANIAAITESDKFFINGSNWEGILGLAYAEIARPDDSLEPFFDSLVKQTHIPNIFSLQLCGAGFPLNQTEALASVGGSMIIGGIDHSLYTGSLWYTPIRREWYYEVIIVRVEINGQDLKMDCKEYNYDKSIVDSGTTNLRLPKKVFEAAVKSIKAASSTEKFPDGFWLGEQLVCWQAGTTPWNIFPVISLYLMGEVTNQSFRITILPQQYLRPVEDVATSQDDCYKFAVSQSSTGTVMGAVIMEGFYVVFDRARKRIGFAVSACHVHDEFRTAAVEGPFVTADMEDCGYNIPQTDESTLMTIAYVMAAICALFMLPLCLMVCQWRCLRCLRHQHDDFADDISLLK

SMILES: CC1(c2cc(NC(=O)c3ccc(C#N)cn3)ccc2F)Cc2ncc(F)cc2C(N)=N1 (stereo not given)
- IC50 (Beta-secretase 1 [3]): 2 nM

SMILES: NC1=N[C@@]2(c3cc(CNCC(F)(F)F)c(F)cc3F)CO[C@@H](CF)C[C@H]2CS1
- pKa [1]: 7.9

SMILES: CN1C(=N)N[C@]2(C)c3cc(NC(=O)c4ccc(C#N)cn4)ccc3OCC[C@@H]2S1(=O)=O (relative stereo)
- Ki (Beta-secretase 2 [8]): 303 nM
- Ki (Beta-secretase 1 [9]): 47 nM

SMILES: C[C@@]1(c2nc(NC(=O)c3ccc(C#N)cn3)ccc2F)CS2(=O)=NCCCCN2C(N)=N1 (stereo not given in full)
- IC50 (Beta-secretase 1 [10]): 49 nM

SMILES: CN1C(N)=N[C@](C)(c2cc(NC(=S)c3ccc(C#N)cn3)ccc2F)CS1(=O)=O
- Ki (Beta-secretase 2 [8]): 1 nM
- Ki (Beta-secretase 1 [9]): 9.1 nM

SMILES: CN=[S@@]1(=O)C[C@@](C)(c2cc(NC(=O)c3ccc(Cl)cn3)ccc2F)N=C(N)C1(C)C
- Ki (Beta-secretase 2 [8]): 1 nM
- Ki (Beta-secretase 1 [9]): 3 nM

SMILES: Cn1cc2n(c1=O)C[C@@](C)(c1cc(NC(=O)c3ccc(C#N)cn3)ccc1F)N=C2N
- IC50 (Beta-secretase 1 [6]): 3.9 nM
- IC50 (Beta-secretase 1 [12]): 13.2 nM

SMILES: N#Cc1ccc(C(=O)Nc2ccc(F)c([C@]34COC[C@H]3n3cccc3C(N)=N4)c2)nc1
- IC50 (Beta-secretase 1 [6]): 26.3 nM
- IC50 (Beta-secretase 2 [7]): 120 nM
- IC50 (Beta-secretase 1 [12]): 15.5 nM

SMILES: CN1C[C@@H](c2cc(NC(=O)c3ccc(C#N)cn3)ccc2F)N=C(N)C(C)(C)S1(=O)=O
- Ki (Beta-secretase 2 [8]): 32 nM
- Ki (Beta-secretase 1 [9]): 22 nM

SMILES: COc1ncc(C(=O)NC2CC2)c2c1C[C@]1(c3ccc(F)cc3F)N=C(N)SC[C@@H]1C2
- IC50 (Beta-secretase 1 [13]): 9.6 nM

SMILES: Cc1cc(C#N)cnc1C(=O)Nc1ccc(F)c([C@]2(C)CS3(=O)=NCCCCN3C(N)=N2)c1 (stereo not given in full)
- IC50 (Beta-secretase 1 [10]): 2 nM

SMILES: CN=S1(=O)C[C@@](C)(c2cc(-c3cc(-c4ncc(OC)cn4)no3)ccc2F)N=C(N)N1C (single isomer, unassigned)
- IC50 (Beta-secretase 1 [10]): 22 nM

Now from value to molecule:

- pKa [1]: 11.1
- IC50 (Beta-secretase 1 [2]): 1.05 µM
SMILES: C[C@@]1(c2cc(NC(=O)c3ccc(C#N)cn3)ccc2F)CCC(N)=N1

- IC50 (Beta-secretase 1 [3]): 0.615 nM
SMILES: C[C@]1(c2cc(NC(=O)c3ccc(C#N)cn3)ccc2F)N=C(N)OCC12CC(F)(F)C2

- IC50 (Beta-secretase 1 [4]): 4 nM
SMILES: COc1cnc(C(=O)Nc2ccc(F)c([C@]34CO[C@H](C(F)F)[C@H]3CSC(N)=N4)c2)cn1

- IC50 (Beta-secretase 1 [5]): 20.7 nM
SMILES: C[C@]1(c2cc(NC(=O)c3ccc(C#N)cn3)ccc2F)N=C(N)OC2(COC2)[C@H]1F

- IC50 (Beta-secretase 1 [6]): 6.13 nM
- efflux ratio (P-glycoprotein (ABCB1)): 1.6
- IC50 (Beta-secretase 2 [7]): 0.5 nM
SMILES: CC(F)(F)[C@@H]1C[C@@](C)(c2cc(NC(=O)c3ccc(OCF)cn3)ccc2F)N=C(N)S1

- IC50 (Beta-secretase 1 [2]): 7.08 µM
SMILES: NC1=N[C@@]2(COc3ccc(NC(=O)c4cnc(OCC(F)(F)F)cn4)cc32)[C@H](C(F)(F)F)C1

- IC50 (Beta-secretase 1 [4]): 8 nM
SMILES: COc1cnc(C(=O)Nc2ccc(F)c([C@]34CO[C@H](C(F)(F)F)[C@H]3CSC(N)=N4)c2)cn1

- IC50 (Beta-secretase 1 [11]): 0.64 nM
SMILES: C#CCOc1cnc(C(=O)Nc2cc(F)c(F)c([C@@]3(CF)N=C(N)S[C@H]4C[C@H]43)c2)cn1

- IC50 (Beta-secretase 1 [4]): 8 nM
SMILES: NC1=N[C@@]2(c3cccc(NC(=O)c4cnc(C(F)F)cn4)c3)CCO[C@H]2CS1

- IC50 (Beta-secretase 1 [14]): 1.6 nM
- IC50 (Beta-secretase 2 [15]): 13.2 nM
- IC50 (Beta-secretase 1 [11]): 3.7 nM
SMILES: NC1=N[C@](CF)(c2cc(NC(=O)c3cnc(Cl)cn3)ccc2F)[C@@H]2C[C@]2(C(F)F)S1

- IC50 (Beta-secretase 1 [6]): 5.67 nM
- efflux ratio (P-glycoprotein (ABCB1)): 0.7
- IC50 (Beta-secretase 2 [7]): 1 nM
SMILES: C[C@@]1(c2cc(NC(=O)c3ccc(OCF)cn3)ccc2F)C[C@@H](C(F)(F)F)SC(N)=N1

- IC50 (Beta-secretase 1 [6]): 6.23 nM
- efflux ratio (P-glycoprotein (ABCB1)): 1.1
- IC50 (Beta-secretase 2 [7]): 0.19 nM
SMILES: C[C@@]1(c2cc(NC(=O)c3cnc(OCF)cn3)ccc2F)C[C@@H](C(F)F)SC(N)=N1
